Legend:
Akt2 = target: T1, Akt2 (Homo sapiens, UniProt P31751); assay: HTRF KinEASE assay, IC50 against Akt2; assay type: biochemical; conditions: wild-type Akt2; mean ± SD, n=3
T1 construct: purchased ProQinase
Source text: (§1) The homogeneous time‐resolved fluorescence (HTRF®) KinEASE™ assay by Cisbio was used to determine the half‐maximal inhibitory concentration (IC50) values of the synthesised compounds against Akt1, Akt2 and Akt3 (Table 1).[26]
(§2) The HTRF® KinEASE™ assay (Cisbio) was used to determine the IC 50 values of the synthesised
(§3) al. (Akt2 and Akt3).1,5 The three wild-type Akt isoforms used were acquired from ProQinase.

wild-type Akt1 [1] = target: T2, wild-type Akt1 (Homo sapiens, UniProt P31749); assay: LC-MS identification of covalent binders after co-incubation with Akt1; assay type: binding; conditions: co-incubation with Akt1, Figure S1
T2 construct: made in house
Source text: 2. Evaluation results … 4
4. Molecular Modelling … 57
indicated covalent binding.

AN3CA cells = assay: CellTiter-Glo Luminescent Cell Viability Assay, AN3CA; assay type: cell-based; conditions: Homo sapiens, AN3-CA; endometrium cancer cell line; mean ± SD, n=3; read-out: EC50 AN3CA
KU-19-19 cells = assay: CellTiter-Glo Luminescent Cell Viability Assay, KU-19-19; assay type: cell-based; conditions: Homo sapiens, bladder cancer cell line, Akt1 E17K/E49K, mean ± SD, n=3
Experimental: The potential in vitro antiproliferative activity of the synthesised target compounds was investigated against a number of cancer cell lines by the CellTiter‐Glo® Luminescent Cell Viability Assay (from Promega Corporation, USA, catalogue number: G7570). The half‐maximal effective concentrations (EC50) of these compounds were determined against the AN3‐CA, BT‐474, KU‐19‐19, MCF‐7, T‐47D and ZR‐75‐1 cell lines originating from various tissues, i. e., breast, endometrium and bladder (Table S1). […]
The CellTiter-Glo® Luminescent Cell Viability Assay from Promega was used for the cellular assays, performed as explained by Weisner et al.7,8 Information on the cancer cell lines are given in Table S1, the control compounds used in Figure S3 and the results in Table S2.
Table S1. The cell lines used for the cellular assays, including what cancer type they are predominantly found in, and where the cell lines were acquired form.
Cell line Cancer type Acquired from AN3CA Endometrium ATCC (provided by Prof. Jan G. Hengstler at Leibniz-Institut für Arbeitsforschung Dortmund)
KU-19-19 Bladder Deutsche Sammlung von Mikroorganismen und Zellkulturen […]
BT-474 CLS Cell Lines Service (provided by Prof. Jan G. Hengstler at […] Leibniz-Institut für Arbeitsforschung Dortmund)

BT-474 cells = assay: CellTiter-Glo Luminescent Cell Viability Assay, BT-474; assay type: cell-based; conditions: Homo sapiens, BT-474; breast cancer cell line; mean ± SD, n=3; read-out: EC50 BT‐474
MCF-7 cells = assay: CellTiter-Glo Luminescent Cell Viability Assay, MCF-7; assay type: cell-based; conditions: Homo sapiens, MCF7; breast cancer cell line; mean ± SD, n=3; read-out: EC50 MCF‐7
T47D cells = assay: CellTiter-Glo Luminescent Cell Viability Assay, T47D; assay type: cell-based; conditions: Homo sapiens, breast cancer cell line, mean ± SD, n=3
ZR-75-1 cells = assay: CellTiter-Glo Luminescent Cell Viability Assay, ZR-75-1; assay type: cell-based; conditions: Homo sapiens, ZR-75-1; breast cancer cell line; mean ± SD, n=3; read-out: EC50 ZR‐75‐1
wild-type Akt1 [2] = target: T2, wild-type Akt1; parameters: method as in earlier work; conditions: ref 6a; cited from earlier work
Akt1 [3] = target: T3, Akt1 (Homo sapiens, UniProt P31749); assay: Kinetic analysis with HTRF KinEASE (time-dependent IC50), kinetic parameters of inactivation; assay type: biochemical; parameters: purchased ProQinase; conditions: mean ± SD, n=3
T3 sequence (P31749 whole entry): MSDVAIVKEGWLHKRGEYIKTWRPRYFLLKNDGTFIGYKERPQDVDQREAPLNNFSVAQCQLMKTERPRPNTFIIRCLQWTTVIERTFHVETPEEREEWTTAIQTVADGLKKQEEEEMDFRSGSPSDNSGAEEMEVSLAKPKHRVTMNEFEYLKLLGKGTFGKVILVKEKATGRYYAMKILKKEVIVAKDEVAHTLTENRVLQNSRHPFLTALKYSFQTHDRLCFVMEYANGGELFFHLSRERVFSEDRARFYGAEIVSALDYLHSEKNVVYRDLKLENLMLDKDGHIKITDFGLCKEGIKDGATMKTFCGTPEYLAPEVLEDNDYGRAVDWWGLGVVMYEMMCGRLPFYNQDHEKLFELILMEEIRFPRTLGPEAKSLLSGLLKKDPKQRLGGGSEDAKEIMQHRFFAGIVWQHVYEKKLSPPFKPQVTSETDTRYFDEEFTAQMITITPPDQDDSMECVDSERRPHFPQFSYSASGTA
Source text: The kinetic parameters of inactivation, namely the inhibition constant (K I) and the rate constant of enzyme inactivation (k inact), are therefore preferentially used to describe irreversible inhibitors.[28] K I is defined as the concentration of inhibitor required for half of the maximum potential rate of covalent bond formation, while k inact is defined as the maximum potential rate of covalent bond formation.[29] The ratio of k inact over K I, k inact/K I, accounts for both the potency of the inhibitor (K I) and the maximum potential rate of covalent bond formation (k inact) and thus represents the second‐order rate constant describing the efficiency of covalent complex formation.[29] Using a protocol published by Krippendorff et al., K I and k inact can be directly estimated from time‐dependent IC50 determinations by kinetic analysis with HTRF® KinEASE™.[28]
Using a protocol published by Krippendorff et al., KI, kinact and kinact/KI could be directly
estimated from time-dependent IC50 determinations by kinetic analysis with HTRF® KinEASE™,

Akt1 [4] = target: T3, Akt1; assay: HTRF KinEASE assay, IC50 against Akt1; conditions: Akt1; repeated in Table 2 for comparison; mean ± SD, n=3
Source text: as §1, §2, §3

Akt3 = Akt3 (Homo sapiens, UniProt Q9Y243); assay: HTRF KinEASE assay, IC50 against Akt3
Sequence of Akt3 (Q9Y243 whole entry): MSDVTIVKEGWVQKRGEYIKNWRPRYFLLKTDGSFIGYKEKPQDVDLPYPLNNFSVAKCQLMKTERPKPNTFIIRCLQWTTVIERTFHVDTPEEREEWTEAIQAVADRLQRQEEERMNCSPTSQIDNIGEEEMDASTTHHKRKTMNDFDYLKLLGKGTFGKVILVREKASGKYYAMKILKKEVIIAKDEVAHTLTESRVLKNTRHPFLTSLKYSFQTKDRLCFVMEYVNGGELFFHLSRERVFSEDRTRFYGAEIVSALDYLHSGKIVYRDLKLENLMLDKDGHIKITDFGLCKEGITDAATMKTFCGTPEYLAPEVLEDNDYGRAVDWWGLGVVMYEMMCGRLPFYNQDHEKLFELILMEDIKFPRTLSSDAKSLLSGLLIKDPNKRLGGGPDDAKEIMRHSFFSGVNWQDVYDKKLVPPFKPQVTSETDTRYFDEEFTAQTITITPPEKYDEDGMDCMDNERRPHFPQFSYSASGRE
Source text: as §1, §2, §3

T2 sequence (P31749 whole entry): as the sequence (P31749 whole entry) above
T1 sequence (P31751 whole entry): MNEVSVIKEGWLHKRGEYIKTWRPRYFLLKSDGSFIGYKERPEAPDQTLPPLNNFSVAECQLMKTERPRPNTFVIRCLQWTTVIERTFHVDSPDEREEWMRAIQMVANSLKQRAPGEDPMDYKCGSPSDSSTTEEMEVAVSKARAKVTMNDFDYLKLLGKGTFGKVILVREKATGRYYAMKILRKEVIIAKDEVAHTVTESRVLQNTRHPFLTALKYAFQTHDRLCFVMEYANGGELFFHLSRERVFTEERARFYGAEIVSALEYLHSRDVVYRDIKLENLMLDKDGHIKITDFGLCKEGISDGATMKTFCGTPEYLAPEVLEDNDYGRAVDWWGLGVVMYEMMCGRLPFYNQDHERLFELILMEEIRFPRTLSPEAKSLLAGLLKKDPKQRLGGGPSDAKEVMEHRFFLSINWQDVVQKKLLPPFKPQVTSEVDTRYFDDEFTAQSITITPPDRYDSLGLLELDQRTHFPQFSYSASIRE

- IC50 (Akt2): > 20 µM
- covalent binding to Akt1 (mass increase by LC-MS) (wild-type Akt1 [1]): quantitative protein labelling
- EC50 (BT-474 cells): 8.27 ± 0.862 µM
- EC50 (MCF-7 cells): 4.29 ± 1.13 µM
- EC50 (T47D cells): 4.07 ± 1.61 µM
- Ki (Akt1 [3]; inhibition constant of inactivation): 0.497 ± 0.107 µM
- k inact (Akt1 [3]): 0.071 ± 0.006 min⁻¹
- k inact/K I (Akt1 [3]): 2000 ± 1000 M⁻¹ s⁻¹
- IC50 (Akt1 [4]): 0.372 ± 0.0485 µM
- IC50 (Akt3): > 20 µM
SMILES: C=CC(=O)Nc1cccc(-c2cn(C3CCN(Cc4ccc(-c5nc6ccccn6c5-c5ccccc5)cc4)CC3)nn2)c1 [Compound 3, N ‐[3‐(1‐{1‐[4‐(3‐Phenylimidazo[1,2‐a]pyridin‐2‐yl)benzyl]piperidin‐4‐yl}‐1H‐1,2,3‐triazol‐4‐yl)phenyl]acrylamide]
- EC50 (AN3CA cells): 4.75 ± 1.54 µM
- EC50 (KU-19-19 cells): 12.4 ± 2.88 µM
- EC50 (ZR-75-1 cells): 2.17 ± 0.517 µM
- covalent binding to Akt1, previously identified (wild-type Akt1 [2]): covalent binder
